Here are results for nine molecules from ChEMBL document CHEMBL4477262, “Non-canonical modulators of nuclear receptors” (Bioorg Med Chem Lett, 2016).

The target of one test is T1, Androgen receptor (Homo sapiens, UniProt P10275).
T1 sequence (P10275 whole entry): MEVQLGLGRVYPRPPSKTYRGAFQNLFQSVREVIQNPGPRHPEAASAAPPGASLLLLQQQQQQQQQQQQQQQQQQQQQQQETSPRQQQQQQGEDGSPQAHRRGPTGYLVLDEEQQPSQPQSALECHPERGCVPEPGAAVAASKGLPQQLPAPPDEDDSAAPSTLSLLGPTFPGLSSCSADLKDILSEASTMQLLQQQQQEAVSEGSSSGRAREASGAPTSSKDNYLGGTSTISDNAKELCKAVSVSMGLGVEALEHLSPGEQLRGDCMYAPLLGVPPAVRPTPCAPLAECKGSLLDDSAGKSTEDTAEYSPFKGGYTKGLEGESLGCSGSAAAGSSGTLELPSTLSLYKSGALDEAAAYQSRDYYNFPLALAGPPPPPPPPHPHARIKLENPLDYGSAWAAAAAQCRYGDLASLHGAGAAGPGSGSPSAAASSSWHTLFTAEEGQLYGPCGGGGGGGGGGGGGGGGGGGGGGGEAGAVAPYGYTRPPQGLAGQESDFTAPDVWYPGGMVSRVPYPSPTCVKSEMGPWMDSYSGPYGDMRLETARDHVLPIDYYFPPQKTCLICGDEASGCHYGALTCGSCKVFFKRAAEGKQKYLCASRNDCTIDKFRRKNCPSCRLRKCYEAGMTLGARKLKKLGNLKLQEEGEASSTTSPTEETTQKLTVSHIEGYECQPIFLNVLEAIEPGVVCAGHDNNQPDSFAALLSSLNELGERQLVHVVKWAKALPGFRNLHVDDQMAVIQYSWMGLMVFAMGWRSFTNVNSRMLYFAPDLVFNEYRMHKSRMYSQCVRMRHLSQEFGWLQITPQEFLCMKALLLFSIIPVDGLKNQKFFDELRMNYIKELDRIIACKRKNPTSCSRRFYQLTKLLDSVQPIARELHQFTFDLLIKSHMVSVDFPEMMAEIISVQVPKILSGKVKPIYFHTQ
As to the kind of experiment: Inhibition of AR transcriptional activity in human ARR2PB-eGFP expressing LNCaP cells after 3 days by fluorescence assay. The test is classed as cell-based.

Test [1] addresses T2, Peroxisome proliferator-activated receptor alpha (Homo sapiens, UniProt Q07869).
T2 sequence (Q07869 whole entry): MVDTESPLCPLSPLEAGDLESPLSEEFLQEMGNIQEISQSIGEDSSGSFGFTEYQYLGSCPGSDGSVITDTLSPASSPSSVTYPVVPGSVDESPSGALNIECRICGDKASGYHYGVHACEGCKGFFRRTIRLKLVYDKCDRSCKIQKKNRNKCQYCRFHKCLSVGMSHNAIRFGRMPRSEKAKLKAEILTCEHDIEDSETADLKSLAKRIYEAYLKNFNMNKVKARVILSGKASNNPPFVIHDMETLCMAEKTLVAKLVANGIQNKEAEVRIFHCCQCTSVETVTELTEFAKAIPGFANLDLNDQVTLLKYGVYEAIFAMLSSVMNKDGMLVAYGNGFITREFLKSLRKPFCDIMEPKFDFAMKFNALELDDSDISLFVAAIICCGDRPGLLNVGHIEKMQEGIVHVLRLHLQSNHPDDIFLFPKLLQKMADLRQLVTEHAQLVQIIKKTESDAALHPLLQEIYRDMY
Nature of the test: Displacement of 5-FAM-labeled NBM131 from human PPARalpha ligand binding domain expressed in human HepG2 cells by fluorescence polarization assay. (In general: Polarisation of emitted light reports the rotation of a fluorescent probe.)

In test [2] the target is T3, Peroxisome proliferator-activated receptor gamma (Homo sapiens, UniProt P37231).
T3 sequence (P37231 whole entry): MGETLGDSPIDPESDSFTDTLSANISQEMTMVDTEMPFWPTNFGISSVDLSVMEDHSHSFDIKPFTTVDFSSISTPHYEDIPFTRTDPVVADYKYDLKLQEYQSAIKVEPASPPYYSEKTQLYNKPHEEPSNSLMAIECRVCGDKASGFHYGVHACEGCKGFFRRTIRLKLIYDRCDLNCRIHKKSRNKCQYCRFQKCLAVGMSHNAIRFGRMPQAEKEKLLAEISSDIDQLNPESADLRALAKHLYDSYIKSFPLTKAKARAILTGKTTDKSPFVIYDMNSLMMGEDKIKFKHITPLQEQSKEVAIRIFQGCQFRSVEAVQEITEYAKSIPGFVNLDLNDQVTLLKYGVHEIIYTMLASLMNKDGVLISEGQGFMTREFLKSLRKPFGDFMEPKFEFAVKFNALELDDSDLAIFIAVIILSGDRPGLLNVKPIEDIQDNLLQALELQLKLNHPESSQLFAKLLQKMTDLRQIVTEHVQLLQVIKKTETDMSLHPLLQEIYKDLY
Nature of the test: Displacement of 5-FAM-labeled NBM131 from human PPARgamma ligand binding domain expressed in human HepG2 cells by fluorescence polarization assay.

Test [3] deals with T4, Estrogen receptor (Homo sapiens, UniProt P03372).
T4 sequence (P03372 whole entry): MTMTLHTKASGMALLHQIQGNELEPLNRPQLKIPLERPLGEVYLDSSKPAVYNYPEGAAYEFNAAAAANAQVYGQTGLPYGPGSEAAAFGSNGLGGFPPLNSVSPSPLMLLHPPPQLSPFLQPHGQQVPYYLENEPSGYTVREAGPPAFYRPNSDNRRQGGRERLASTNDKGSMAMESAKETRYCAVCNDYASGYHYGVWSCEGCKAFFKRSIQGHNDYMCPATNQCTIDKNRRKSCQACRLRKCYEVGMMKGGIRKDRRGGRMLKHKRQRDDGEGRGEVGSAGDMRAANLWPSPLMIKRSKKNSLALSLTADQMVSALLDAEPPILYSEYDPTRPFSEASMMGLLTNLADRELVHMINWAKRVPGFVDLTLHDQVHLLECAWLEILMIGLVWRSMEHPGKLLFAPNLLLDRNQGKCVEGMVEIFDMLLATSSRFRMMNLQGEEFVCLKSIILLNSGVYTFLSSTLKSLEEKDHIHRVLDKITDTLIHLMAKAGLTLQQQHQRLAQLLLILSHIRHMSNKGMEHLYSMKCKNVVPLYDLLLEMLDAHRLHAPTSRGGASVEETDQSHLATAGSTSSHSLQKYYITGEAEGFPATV
As to the kind of experiment: Displacement of fluorescein-labeled PGC1alpha peptide from human GST-tagged ERalpha LBD after 2 hrs in presence of estradiol-beta by TR-FRET assay. Background: Time-resolved FRET reads energy transfer from a long-lived donor to a nearby acceptor.

Test [4] concerns the target T4, Estrogen receptor. Nature of the test: Inhibition of full length human ERalpha expressed in human HEC1 cells in presence of estradiol by luciferase reporter gene assay. The test is classed as cell-based. In general terms: In a reporter assay the amount or activity of a reporter protein is the signal.
Test [5] deals with T5, Retinoic acid receptor RXR-alpha (Homo sapiens, UniProt P19793).
T5 sequence (P19793 whole entry): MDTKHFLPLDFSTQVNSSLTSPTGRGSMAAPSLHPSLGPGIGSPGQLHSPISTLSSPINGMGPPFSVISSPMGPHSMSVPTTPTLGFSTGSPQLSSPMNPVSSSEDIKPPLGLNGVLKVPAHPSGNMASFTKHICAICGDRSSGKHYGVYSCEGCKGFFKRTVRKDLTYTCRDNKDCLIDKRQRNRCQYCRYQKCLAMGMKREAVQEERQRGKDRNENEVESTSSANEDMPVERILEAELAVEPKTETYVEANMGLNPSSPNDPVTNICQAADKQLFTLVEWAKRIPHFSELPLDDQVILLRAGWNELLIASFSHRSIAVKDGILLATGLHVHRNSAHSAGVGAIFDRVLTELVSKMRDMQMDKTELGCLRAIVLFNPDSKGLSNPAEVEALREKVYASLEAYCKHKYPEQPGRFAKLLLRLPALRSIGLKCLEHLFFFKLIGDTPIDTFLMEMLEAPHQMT
Description: Binding affinity to human GST-tagged RXRalpha ligand binding domain (223 to 462 residues) expressed in Escherichia coli BL21 assessed as inhibition of 9-cis-RA-induced coactivator recruitment by TR-FRET assay

The target of test [6] is T4, Estrogen receptor. Nature of the test: Displacement of europium-labeled SRC1 peptide from full length human recombinant ERalpha expressed in baculovirus expression system after 1.5 hrs in presence of estradiol-beta by TR-FRET assay.
For another test, the target named is Androgen receptor/PELP1 (Homo sapiens, UniProt P10275+Q8IZL8). Nature of the test: Inhibition of full length AR/PELP1 (unknown origin) interaction expressed in human LNCaP cells preincubated for 2 hrs followed by DHT addition measured after 24 hrs by Western blot analysis. The test is classed as cell-based.
Chain of Androgen receptor/PELP1 (Q8IZL8 whole entry, one chain of several): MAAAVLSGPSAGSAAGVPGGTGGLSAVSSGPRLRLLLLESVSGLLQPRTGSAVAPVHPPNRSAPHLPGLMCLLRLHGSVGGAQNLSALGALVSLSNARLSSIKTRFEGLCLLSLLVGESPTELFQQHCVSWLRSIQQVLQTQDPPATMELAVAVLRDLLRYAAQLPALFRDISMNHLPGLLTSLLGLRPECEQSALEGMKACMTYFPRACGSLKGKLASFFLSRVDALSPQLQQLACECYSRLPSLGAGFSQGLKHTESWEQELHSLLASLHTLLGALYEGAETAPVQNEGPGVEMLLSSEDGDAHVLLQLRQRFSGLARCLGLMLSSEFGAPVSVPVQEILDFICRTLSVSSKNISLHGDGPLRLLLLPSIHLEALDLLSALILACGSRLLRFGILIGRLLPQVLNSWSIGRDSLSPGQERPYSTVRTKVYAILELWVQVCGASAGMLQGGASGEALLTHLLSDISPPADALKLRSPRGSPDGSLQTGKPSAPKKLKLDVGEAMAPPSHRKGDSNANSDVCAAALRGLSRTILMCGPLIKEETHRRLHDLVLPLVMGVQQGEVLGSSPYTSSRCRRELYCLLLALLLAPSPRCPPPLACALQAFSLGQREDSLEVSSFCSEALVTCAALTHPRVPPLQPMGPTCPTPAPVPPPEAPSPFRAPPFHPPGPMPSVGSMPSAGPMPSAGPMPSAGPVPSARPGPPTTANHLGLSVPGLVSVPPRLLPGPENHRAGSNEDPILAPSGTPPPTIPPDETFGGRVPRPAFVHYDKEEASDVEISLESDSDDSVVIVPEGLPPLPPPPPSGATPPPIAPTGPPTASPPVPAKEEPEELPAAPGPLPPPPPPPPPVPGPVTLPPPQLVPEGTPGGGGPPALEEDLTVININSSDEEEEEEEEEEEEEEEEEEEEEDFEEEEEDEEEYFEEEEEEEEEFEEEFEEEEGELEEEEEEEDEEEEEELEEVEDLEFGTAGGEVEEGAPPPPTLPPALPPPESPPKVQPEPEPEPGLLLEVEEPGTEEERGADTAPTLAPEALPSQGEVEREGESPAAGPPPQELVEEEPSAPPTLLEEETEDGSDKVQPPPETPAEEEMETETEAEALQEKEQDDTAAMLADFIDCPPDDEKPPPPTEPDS

Peptide text beside a SMILES is read from it.

Usually IC50 stands for the concentration needed to halve the response being measured. At Androgen receptor, `c1ccc2c(c1)CC(c1c[nH]c3ccccc13)N2` (stereo not given) had an IC50 of 310 nM. The Kd is the free concentration of one partner at which half of the binding sites on the other are occupied at equilibrium, for simple one-to-one binding. A low value points to higher affinity. Consider `CC(C)C[C@H](NC(=O)[C@H](Cc1ccccc1)NC(=O)[C@H](CCC(N)=O)NC(=O)[C@@H](NC(=O)[C@H](CC(C)C)NC(=O)[C@H](CC(C)C)NC(=O)[C@@H]1CCCN1C(=O)[C@H](Cc1cnc[nH]1)NC(=O)[C@H](CC(C)C)NC(=O)[C@H](CCC(N)=O)NC(=O)[C@@H](NC(=O)[C@@H]1CCCN1C(=O)[C@@H]1CCCN1C(=O)[C@@H](NC(=O)[C@@H](NC(=O)[C@H](C)N)[C@@H](C)O)[C@@H](C)O)[C@@H](C)O)[C@@H](C)O)C(=O)N[C@@H](CCCNC(=N)N)C(=O)N[C@H](C(=O)N[C@@H](CC(=O)O)C(=O)O)[C@@H](C)O` (H-ATTPPTQLHPLLTQFLRTD-OH), for which the dissociation constant (Kd) in test [1] and in test [2] was 80 nM throughout. For the molecule `O=C1NN(c2ccc(Cl)c(Cl)c2)C(=O)C1Cc1c[nH]c2ccccc12` (stereo not given), the IC50 at Estrogen receptor [3] was found to be 2460 nM.

For `CC(C)NC(=O)CSc1nc2ccc(NC(=O)CSc3cccc(Cl)c3)cc2s1`, on Estrogen receptor [4], the IC50 worked out at 6300 nM. As for `CC1=C(CCc2nnn[nH]2)c2cc(F)ccc2/C1=C\c1ccc(C(C)C)cc1`, the IC50 in test [5] was 10000 nM. As to `O=C(CCCCn1c(=S)[nH]c2ccccc2c1=O)N1CCN(c2ccc(C(F)(F)F)cc2)CC1`, the IC50 at Estrogen receptor [4] is 2300 nM. With `CCOc1cc(Br)cc(CNNC(=O)c2ccc3c(c2)OCCO3)c1O`, the IC50 on Estrogen receptor [3] worked out at 2980 nM. The Ki is the equilibrium dissociation constant of an inhibitor or competing ligand from its target. Consider `CC[C@H](C)[C@@H]1NC(=O)[C@H](NC(=O)[C@@H](N)CCCCN)CSSC[C@@H](C(=O)N[C@@H](CCCNC(=N)N)C(=O)N[C@@H](CC(C)C)C(=O)N[C@@H](CC(C)C)C(=O)N[C@@H](CCC(N)=O)C(=O)O)NC(=O)[C@H](CC(C)C)NC1=O`, for which the inhibitory constant (Ki) at Estrogen receptor [6] was 25 nM. Molecule `COC(=O)c1ccc(NC(=O)c2ccc([N+](=O)[O-])c(OCC(C)C)c2)c(OCC(C)C)c1` returned an IC50 on Androgen receptor/PELP1 of 40 nM.
